For one experiment, the system named is OPM-2. Description: Assay 2: multiple myeloma cellular efficacy, PrestoBlue cell proliferation/survival. As to conditions: Homo sapiens, 96 h, OPM-2 cells, 4 days. It is filed as cell-based. As for the experimental part: Multiple Myeloma Cellular Efficacy:
10000 OPM-2 (ACC50; DSMZ) were plated into wells of a 384 well plate (Greiner 781090). Cells were treated for 4 days with a dose range of compound or vehicle. At the end of the experiment cells were stained directly with PrestoBlue (ThermoFisher Scietific; A13262) for 2 hours at 37° C. in a humidified incubator according to manufactor's instruction. To assess the relative cell number the PrestoBlue signal was measured using either a TecanM1000Pro reader or a Tecan Sparks reader following the manufactor's instructions. Background (no cells) values were subtracted and set in relation to the vehicle control. To assess the EC50 of each compound the relative fluorescence value was plotted against the compound concentration after log transformation. Data were fitted in a nonlinear manner with a variable slope (four parameters) using graphpad prism software. Cellular efficacy of compounds was evaluated in the multiple myeloma cell line OPM-2 using the cell proliferation/survival assay PrestoBlue. EC50 values are classified as indicated below.

Another experiment concerns A375 cells. Description: Assay 1: A375 cells treated with S1152, S1008 and compound, immunofluorescence (sc-365823) signal. The conditions noted are these: 1 μM S1152 + 0.5 μM S1008, one day. The class given is cell-based. The procedure: One thousand four hundred A375 cells were seeded in each well of a 384 well microplate. One day later they were treated with 1 μM S1152 (Selleckchem) in dimethyl sulfoxide, 0.5 μM S1008 (Selleckchem) and dose ranges of invention compounds for one day in Dulbecco's Modified Eagle's Medium supplemented with 10% fetal calf serum and 2 mM (2S)-2-amino-4-carbamoylbutanoic acid. Wells were incubated with 4% polyoxymethylene (Sigma Aldrich 158127) at ambient temperature. […] After one minute phosphate-buffered saline was replaced with 0.2% polyethylene glycol octylphenyl ether in phosphate-buffered saline. […] 1% aminoethanoic acid in phosphate-buffered saline was added for ten minutes at ambient temperature. […] After one hour at ambient temperature in the dark, signal in wells was measured with a Acumen Cellista. 3,8-Diamino-5-[3-(diethylmethylammonio)propyl]-6-phenylphenanthridinium diiodide-positive objects were defined in FL3 (565-600 nm) with a perimeter between 50-800 μm and a total intensity of 10000-1000000 FLU. Signal in FL2 (500-530 nm) was measured in defined objects. A normalized ratio of total In FL2 over total In FL3 staining was log transformed. A non-linear regression (variable slope, 4 parameters) was used to calculate EC50 values using GraphPad Prism (Version 7.0d).
In an alternative procedure, assay 1 has been affected by changing the counteratain. […] Cells were incubated with 0.5 μg/ml 2-(4-Amidinophenyl)-6-indolecarbamidine dihydrochloride, 4′,6-Diamidino-2-phenylindole dihydrochloride (Sigma D9542) in phosphate-buffered saline for at least 30 minutes at ambient temperature in the dark. A Celigo Imager (Nexcelom) was used to acquire images in the blue and green channel. The blue channel was used as a mask to define the area for the green signal. The average integrated intensity of the green signal was normalized and a non-linear regression (variable slope, 4 parameter) was used to calculate the EC50 values using GraphPad Prism (Version 8.4)

Bounds are passed on as bounds.

For orientation: EC50 means the concentration at which the effect is half-maximal.

For `CC(=O)N1C[C@H](c2nc(Nc3cccc(N4CCC4=O)c3)cc(-c3cccnc3)n2)CC[C@@H]1C` [Compound 00087, 1-(3-((2-((3R,6S)-1-acetyl-6-methylpiperidin-3-yl)-6-(pyridin-3-yl)pyrimidin-4-yl)amino)phenyl)azetidin-2-one], the results for the half-maximal effective concentration (EC50) in the experiment with OPM-2 and in the experiment with A375 cells were 200 to 1000 nM and below 200 nM, respectively.
The like results for `CC(=O)N1C[C@H](c2nc(Nc3ccnc(F)c3)cc(-c3cncc4c3ccn4C)n2)CC[C@@H]1C` [Compound 00118, 1-((2S,5R)-5-(4-((2-fluoropyridin-4-yl)amino)-6-(1-methyl-1H-pyrrolo[2,3-c]pyridin-4-yl)pyrimidin-2-yl)-2-methylpiperidin-1-yl)ethan-1-one] were, in that order, below 200 nM and below 200 nM.
`CC(=O)N1C[C@H](c2nc(Nc3cncc(C(F)(F)F)c3)cc(-c3cccnc3)n2)CC[C@@H]1C` [Compound 00124, 1-((2S,5R)-2-methyl-5-(4-(pyridin-3-yl)-6-((5-(trifluoromethyl)pyridin-3-yl)amino)pyrimidin-2-yl)piperidin 1-yl)ethan-1-one]: the EC50 is 200 to 1000 nM in the experiment on OPM-2 and below 200 nM in the experiment on A375 cells.
Take `CC(=O)N1C[C@H](c2nc(Nc3cccc(-c4nnn(C)n4)c3)cc(-c3cccnc3)n2)CC[C@@H]1C` [Compound 00062, 1-((2S,5R)-2-methyl-5-(4-((3-(2-methyl-2H-tetrazol-5-yl)phenyl)amino)-6-(pyridin-3-yl)pyrimidin-2-yl)piperidin-1-yl)ethan-1-one]: the concentration for a half-maximal effect (EC50) in the experiment on OPM-2 and in the experiment with A375 cells was below 200 nM throughout.
As for `CC(=O)N1C[C@H](c2nc(Nc3ccnc(C)c3)cc(-c3cncc(N4C[C@@H]5C[C@H]4CO5)c3)n2)CC[C@@H]1C` [Compound 00115, 1-((2S,5R)-5-(4-(5-((1S,4S)-2-oxa-5-azabicyclo[2.2.1]heptan-5-yl)pyridin-3-yl)-6-((2-methylpyridin-4-yl)amino)pyrimidin-2-yl)-2-methylpiperidin-1-yl)ethan-1-one], the half-maximal effective concentration (EC50) in the experiment with OPM-2 is 200 to 1000 nM; in the experiment on A375 cells, below 200 nM.
The like results for `CC(=O)N1C[C@H](c2nc(Nc3ccnc(C)c3)cc(-c3cncc4c3cnn4C)n2)CC[C@@H]1C` [Compound 00112, 1-((2S,5R)-2-methyl-5-(4-(1-methyl-1/7-pyrazolo[3,4-c]pyridin-4-yl)-6-((2-methylpyridin-4-yl)amino)pyrimidin-2-yl)piperidin-1-yl)ethan-1-one] were, in that order, below 200 nM and below 200 nM.
Consider `CC(=O)N1C[C@H](c2nc(Nc3cccc(N4CCOC4=O)c3)cc(-c3cccnc3)n2)CC[C@@H]1C` [Compound 00088, 3-(3-((2-((3R,6S)-1-acetyl-6-methylpiperidin-3-yl)-6-(pyridin-3-yl)pyrimidin-4-yl)amino)phenyl)oxazolidin-2-one], for which the results for the EC50 in the experiment on OPM-2 and in the experiment on A375 cells were 200 to 1000 nM and below 200 nM, respectively.
The matching figures for `CC(=O)N1C[C@H](c2nc(Nc3cccc(-c4cn(C)nn4)c3)cc(-c3cnccn3)n2)CC[C@@H]1C` [Compound 00068, 1-((2S,5R)-2-methyl-5-(4-((3-(1-methyl-1H-1,2,3-triazol-4-yl)phenyl)amino)-6-(pyrazin-2-yl)pyrimidin-2-yl)piperidin-1-yl)ethan-1-one]: below 200 nM and below 200 nM.
On to `COc1cc(Nc2cc(-c3cnccn3)nc([C@@H]3CC[C@H](C)N(C(C)=O)C3)n2)cc(C)n1` [Compound 00150, 1-((2S,5R)-5-(4-((2-methoxy-6-methylpyridin-4-yl)amino)-6-(pyrazin-2-yl)pyrimidin-2-yl)-2-methylpiperidin-1-yl)ethan-1-one], for which the EC50 with OPM-2 and with A375 cells was below 200 nM each time.
With `CC(=O)N1C[C@H](c2nc(Nc3cccc4nn(C)cc34)cc(-c3cnccn3)n2)CC[C@@H]1C` [Compound 00050, 1-((2S,5R)-2-methyl-5-(4-((2-methyl-2/−/−indazol-4-yl)amino)-6-(pyrazin-2-yl)pyrimidin-2-yl)piperidin-1-yl)ethan-1-one], the values for the concentration for a half-maximal effect (EC50) in the experiment on OPM-2 and in the experiment with A375 cells were 200 to 1000 nM and below 200 nM, respectively.
`CC(=O)N1C[C@H](c2nc(Nc3ccnc(-c4cnn(C)c4)c3)cc(-c3cccnc3)n2)CC[C@@H]1C` [Compound 00143, 1-((2S,5R)-2-methyl-5-(4-((2-(1-methyl-1H-pyrazol-4-yl)pyridin-4-yl)amino)-6-(pyridin-3-yl)pyrimidin-2-yl)piperidin-1-yl)ethan-1-one]: the concentration giving a half-maximal response (EC50) in the experiment on OPM-2 and in the experiment with A375 cells was below 200 nM in each case.
Regarding `CC(=O)N1C[C@H](c2nc(Nc3cccc(-n4ccnn4)c3)cc(-c3cccnc3)n2)CC[C@@H]1C` [Compound 00083, 1-((2S,5R)-5-(4-((3-(1H-1,2,3-triazol-1-yl)phenyl)amino)-6-(pyridin-3-yl)pyrimidin-2-yl)-2-methylpiperidin-1-yl)ethan1-one], the EC50 with OPM-2 is 200 to 1000 nM; with A375 cells it was below 200 nM.
The matching figures for `CC(=O)N1C[C@H](c2nc(Nc3cc(C)nc(-c4cnn(C)c4)c3)cc(-c3cccnc3)n2)CC[C@@H]1C` [Compound 00161, 1-((2S,5R)-2-methyl-5-(4-((2-methyl-6-(1-methyl-1H-pyrazol-4-yl)pyridin-4-yl)amino)-6-(pyridin-3-yl)pyrimidin-2-yl)piperidin-1-yl)ethan-1-one]: below 200 nM and below 200 nM.
As to `COCC(=O)Nc1cccc(Nc2cc(-c3cccnc3)nc([C@@H]3CC[C@H](C)N(C(C)=O)C3)n2)c1` [Compound 00084, N-(3-((2-((3R,6S)-1-acetyl-6-methylpiperidin-3-yl)-6-(pyridin-3-yl)pyrimidin-4-yl)amino)phenyl)-2-methoxyacetamide], the 50% effective concentration (EC50) with OPM-2 is 200 to 1000 nM; with A375 cells, below 200 nM.
The matching figures for `CC(=O)N1C[C@H](c2nc(Nc3cncc(C(F)F)c3)cc(-c3cccnc3)n2)CC[C@@H]1C` [Compound 00107, 1-((2S,5R)-5-(4-((5-(difluoromethyl)pyridin-3-yl)amino)-6-(pyridin-3-yl)pyrimidin-2-yl)-2-methylpiperidin-1-yl)ethan-1-one]: 200 to 1000 nM and 200 to 1000 nM.
The like results for `CC(=O)N1C[C@H](c2nc(Nc3cc(-c4cnn(C)c4)cc(C(F)F)c3)cc(-c3cccnc3)n2)CC[C@@H]1C` [Compound 00057, 1-((2S,5R)-5-(4-((3-(difluoromethyl)-5-(1-methyl-1H-pyrazol-4-yl)phenyl)amino)-6-(pyridin-3-yl)pyrimidin-2-yl)-2-methylpiperidin-1-yl)ethan-1-one] were, in that order, below 200 nM and below 200 nM.
The like results for `CC(=O)N1C[C@H](c2nc(Nc3ccnc(-c4cnn(C5CC5)c4)c3)cc(-c3cccnc3)n2)CC[C@@H]1C` [Compound 00157, 1-((2S,5R)-5-(4-((2-(1-cyclopropyl-1H-pyrazol-4-yl)pyridin-4-yl)amino)-6-(pyridin-3-yl)pyrimidin-2-yl)-2-methylpiperidin-1-yl)ethan-1-one] were, in that order, below 200 nM and below 200 nM.
As to `CC(=O)N1C[C@H](c2nc(Nc3cc(C)nc(C(F)F)c3)cc(-c3cnccn3)n2)CC[C@@H]1C` [Compound 00145, 1-((2S,5R)-5-(4-((2-(difluoromethyl)-6-methylpyridin-4-yl)amino)-6-(pyrazin-2-yl)pyrimidin-2-yl)-2-methylpiperidin-1-yl)ethan-1-one], the concentration giving a half-maximal response (EC50) in the experiment with OPM-2 and with A375 cells was below 200 nM each time.
Turning to `CC(=O)Nc1cccc(Nc2cc(-c3cccnc3)nc([C@@H]3CC[C@H](C)N(C(C)=O)C3)n2)n1` [Compound 00148, N-(6-((2-((3R,6S)-1-acetyl-6-methylpiperidin-3-yl)-6-(pyridin-3-yl)pyrimidin-4-yl)amino)pyridin-2-yl)acetamide], the concentration giving a half-maximal response (EC50) in the experiment with OPM-2 and in the experiment with A375 cells was below 200 nM throughout.
In the case of `CC(=O)N1C[C@H](c2nc(Nc3cc(F)cc(-c4cnn(C)c4)c3)cc(-c3cncc(N4C[C@@H]5C[C@H]4CO5)c3)n2)CC[C@@H]1C` [Compound 00090, 1-((2S,5R)-5-(4-(5-((1S,4S)-2-oxa-5-azabicyclo-[2.2.1]heptan-5-yl)pyridin-3-yl)-6-((3-fluoro-5-(1-methyl-1H-pyrazol-4-yl)phenyl)amino)pyrimidin-2-yl)-2-methylpiperidin-1-yl)ethan-1-one], the EC50 in the experiment with OPM-2 was below 200 nM.

Values taken from US12478624B2, “Heterocyclic derivatives, pharmaceutical compositions and their use in the treatment or amelioration of cancer” (Tolremo Therapeutics AG, priority 2019, dated 2025).
